From publication PMC8217813, “Bridging Computational Vaccinology and Vaccine Development Through Systematic Identification, Characterization, and Downselection of Conserved and Variable Circumsporozoite Protein CD4 T Cell Epitopes From Diverse Plasmodium falciparum Strains” (Frontiers in Immunology, 2021)
Peptide text beside a SMILES is read from it.

Tests used:
HLA A*0201 = target: T1, HLA A*0201 (Homo sapiens, UniProt P04439, D140Y/D185E/D98H/E176V/E277Q/G131W/G231S/I119V/I121R/I166T/I218V/L300P/L318F/N151K/N90K/P208A/P217A/Q86G/Q94H/R138H/R169H/T345S); experiment: biochemical; format: binding
T1 construct: Pure Protein, LLC (ran the assay)

HLA B*0702 = target: T2, HLA B*0702 (Homo sapiens, UniProt P01889); experiment: biochemical; format: binding
T2 construct: Pure Protein, LLC (ran the assay)

HLA A*2402 = target: T3, HLA A*2402 (Homo sapiens, UniProt P04439, D101N/D140Y/D185E/E176V/E190D/F33S/G103R/G107R/I119L/I121M/I306V/K335N/L105A/L180Q/L300P/N151K/N90K/Q86E/Q94H/R106L/R138H/R89G/T104I/T345S/V100E/W191G/Y123F); experiment: In vitro class I HLA binding competition assay (fluorescence polarization); conditions: allele A2402; cell-free competition with fluorescently labeled control peptide, fluorescence polarization at 72 hours
T3 construct: Pure Protein, LLC (ran the assay)
Procedure: The cell-free class I HLA binding assay in use at Pure Protein, LLC allows for in vitro quantification of peptide-HLA binding affinity in a competition format. In this assay, a fluorescently labeled, high binding, control peptide is loaded onto 384-well ½-area plates along with unlabeled experimental peptides. To remove endogenous peptides and render the HLA A and B molecules receptive to binding, HLA is heated at 53°C for 15 minutes and immediately added to the assay. The mixture is then allowed to stand for three days. […] Binding of experimental peptides is expressed as the percent inhibition of the labeled control peptide (experimental fluorescence / control fluorescence, multiplied by 100). The percent inhibition values for each experimental peptide (across a range of molar concentrations) are used to calculate the concentration which inhibits 50% of the labeled control peptide’s specific binding. This value is referred to as the peptide’s IC50.

HLA B*4402 = HLA B*4402 (Homo sapiens, UniProt P01889, A223V/A65T/A93T/A95T/D201E/D98Y/E176V/E187L/E204Q/E69K/G107R/H137Y/K202T/L105A/L119I/N104T/N87E/Q56L/Q94N/R106L/R155S/R180D/S101N/S121R/S35A/S48T/T118I/V36M/W191S/Y140D/Y91S); experiment: as above; conditions: allele B4402; cell-free competition with fluorescently labeled control peptide, fluorescence polarization at 72 hours
Procedure: The cell-free class I HLA binding assay in use at Pure Protein, LLC allows for in vitro quantification of peptide-HLA binding affinity in a competition format. In this assay, a fluorescently labeled, high binding, control peptide is loaded onto 384-well ½-area plates along with unlabeled experimental peptides. To remove endogenous peptides and render the HLA A and B molecules receptive to binding, HLA is heated at 53°C for 15 minutes and immediately added to the assay. The mixture is then allowed to stand for three days. Once the mixture has reached steady equilibrium (at 72 hours), displacement of the high binding control peptide is measured through Fluorescence Polarization. Binding of experimental peptides is expressed as the percent inhibition of the labeled control peptide (experimental fluorescence / control fluorescence, multiplied by 100). The percent inhibition values for each experimental peptide (across a range of molar concentrations) are used to calculate the concentration which inhibits 50% of the labeled control peptide’s specific binding. This value is referred to as the peptide’s IC50.

| Compound | IC50 (HLA A*0201) [µM] | IC50 (HLA B*0702) [µM] | IC50 (HLA A*2402) [µM] | IC50 (HLA B*4402) [µM] |
| --- | --- | --- | --- | --- |
| CC[C@H](C)[C@H](NC(=O)[C@H](CCCCN)NC(=O)[C@H](CCCCN)NC(=O)[C@H](CC(C)C)NC(=O)[C@@H](N)Cc1ccc(O)cc1)C(=O)N[C@@H](CCC(N)=O)C(=O)N[C@@H](CC(N)=O)C(=O)N[C@@H](CO)C(=O)N[C@@H](CC(C)C)C(=O)O [Cluster 319_ICS2] (H-YLKKIQNSL-OH) | 2.18 | 9.2 | 11.2 |  |
| CC[C@H](C)[C@H](N)C(=O)N[C@@H](CCC(N)=O)C(=O)N[C@@H](CC(N)=O)C(=O)N[C@@H](CO)C(=O)N[C@@H](CC(C)C)C(=O)N[C@@H](CO)C(=O)N[C@H](C(=O)N[C@@H](CCC(=O)O)C(=O)N[C@@H](Cc1c[nH]c2ccccc12)C(=O)O)[C@@H](C)O [Cluster 323_3D7] (H-IQNSLSTEW-OH) |  |  | 21.3 | 136 |
| CC[C@H](C)[C@H](NC(=O)[C@H](CO)NC(=O)[C@H](CO)NC(=O)[C@H](CC(N)=O)NC(=O)[C@@H](NC(=O)[C@@H](NC(=O)[C@H](CC(N)=O)NC(=O)[C@H](Cc1ccccc1)NC(=O)[C@@H](N)C(C)C)C(C)C)C(C)C)C(=O)O [Cluster 377_3D7] (H-VFNVVNSSI-OH) |  |  | 11.6 |  |
| CC[C@H](C)[C@H](NC(=O)[C@@H](N)CC(C)C)C(=O)N[C@@H](CCSC)C(=O)N[C@H](C(=O)N[C@@H](CC(C)C)C(=O)N[C@@H](CO)C(=O)N[C@@H](Cc1ccccc1)C(=O)N[C@@H](CC(C)C)C(=O)N[C@@H](Cc1ccccc1)C(=O)O)C(C)C [Cluster 387_3D7] (H-LIMVLSFLF-OH) |  |  | 19.3 |  |
